Experimental data published in paper PMC12257542, “A Radiolabeled Photoswitchable G Protein-Coupled Receptor Antagonist Enlightens Ligand Binding Kinetics Associated with Photoswitching” (Journal of the American Chemical Society, 2025).
Where “and” joins values, the source holds several entries; their conditions need not be identical. Equal values may be shown once. Read-outs that look alike come from different tables or passages of the source.

How the values were obtained:
[1] = Photostationary state area percentages by LC-MS at the isosbestic point; assay type: physicochemical
[2] = Nephelometry (qualitative solubility comparison); assay type: physicochemical; conditions: trans state for VUF14862, either state for 3f
[3] = Thermal relaxation of PSS cis states (Arrhenius extrapolation); assay type: physicochemical; conditions: approximate; HBSS buffer + 1% DMSO, extrapolated to 20 °C
Protocol: (§1) Experimental procedures – Photochemistry
(§2) UV−Vis spectra were recorded using a Thermo-scientific Evolution 201 PC spectrophotometer equipped with a thermostated cell holder set at 20 °C. Fits of UV−vis spectroscopy data were generated using Prism 10.1.0. Illumination for almost all photochemical experiments was executed using a Sutter instruments Lambda LS with a 300 W full-spectrum lamp connected to a Sutter instruments Lambda 10-3 optical filter changer equipped with 360 ± 10 nm, 434 ± 9 nm 494 ± 9 nm, or a Lambda 721 optical beam combiner system equipped with 365 ± 11 nm and 506 ± 14 nm filter. The light intensity used for the lambda 10-3 optical filter is 0.93 mW/mm2 using the 360 ± 20 nm filter, 0.79 mW/mm2 for the 434 ± 9 nm filter, 0.77 mW/mm2 for the 494 ± 9 nm filter as measured using a Thorlabs PM16−401 power meter. The light intensity used for the lambda 721 optical beam combiner is 200 mW using the 365 ± 11 nm filter and 60 mW for the 506 ± 12 nm filter. For photochemical analyses, illuminations were performed in Hellma Suprasil quartz 114QS cuvettes. For the dynamic illuminations, a 4-way cuvette holder (Avantes) was used. The left outlet of the holder is connected to an Avantes AvaLight-DH-S-BAL Deuterium lamp. The right outlet is connected through a fiber to an AvaSpec UV/Vis spectrometer. The lower outlet is connected to a Lambda 721 optical beam combiner system equipped with 365 ± 11 nm and 506 ± 14 nm filter illumination means. The upper outlet is covered with a black cap. The temperature of the solution in the cuvette (20 °C) is controlled by Q-blue Wireless Temperature Control software.
Thermal relaxation experiments and Arrhenius extrapolations were performed according to Priimagi et al20, using a compound concentration of 25 μM in HBSS +1% DMSO and temperatures of 50, 60, and 70 °C. Illuminations for pharmacological experiments were performed in cylindrical clear glass vials with a volume of 4.5 mL. The typical distance between light source and vial or cuvette was 2 cm.

[4] = UV-vis spectra of trans and PSS cis states in HBSS buffer; assay type: physicochemical; conditions: 25 μM in HBSS buffer containing 1% DMSO
Protocol: as §1
as §2, with “software. […]” for “software.”
The typical distance […]
between light source and vial or cuvette was 2 cm.

Nluc-H2R = Nluc-H2R (Homo sapiens, UniProt P25021); assay type: binding; conditions: trans isomer; at concentrations lower than 1 μM; competition with 50 nM UR-KAT478
Chain of Nluc-H2R (P25021 whole entry): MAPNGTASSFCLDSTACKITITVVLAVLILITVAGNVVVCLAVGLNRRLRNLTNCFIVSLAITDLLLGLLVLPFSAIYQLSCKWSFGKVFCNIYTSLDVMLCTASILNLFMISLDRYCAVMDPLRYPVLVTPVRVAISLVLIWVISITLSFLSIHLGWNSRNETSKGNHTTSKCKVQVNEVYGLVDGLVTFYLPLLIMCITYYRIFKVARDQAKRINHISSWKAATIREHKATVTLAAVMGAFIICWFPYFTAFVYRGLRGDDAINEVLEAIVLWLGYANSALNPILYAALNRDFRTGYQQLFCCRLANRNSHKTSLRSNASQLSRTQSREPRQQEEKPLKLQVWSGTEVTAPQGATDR

H3R = H3R (Homo sapiens, UniProt Q9Y5N1); assay: [3H]NAMH competition radioligand binding on cell homogenates overexpressing H3R; conditions: for Ki: [3H]NAMH competition, n = 3
Chain of H3R (Q9Y5N1 whole entry): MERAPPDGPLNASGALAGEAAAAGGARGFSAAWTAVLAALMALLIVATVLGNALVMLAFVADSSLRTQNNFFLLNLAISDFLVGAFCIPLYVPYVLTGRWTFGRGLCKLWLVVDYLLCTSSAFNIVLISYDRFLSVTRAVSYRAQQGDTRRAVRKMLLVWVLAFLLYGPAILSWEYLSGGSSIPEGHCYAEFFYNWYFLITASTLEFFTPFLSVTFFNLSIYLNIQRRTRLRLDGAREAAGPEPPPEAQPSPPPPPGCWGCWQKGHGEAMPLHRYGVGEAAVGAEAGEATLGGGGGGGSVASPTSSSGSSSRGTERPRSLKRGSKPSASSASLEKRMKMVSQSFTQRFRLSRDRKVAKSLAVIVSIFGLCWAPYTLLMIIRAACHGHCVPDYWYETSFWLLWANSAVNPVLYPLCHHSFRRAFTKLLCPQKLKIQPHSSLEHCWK

hH3R = hH3R (Homo sapiens, UniProt Q9Y5N1); assay: Competition binding of non-labeled ligands with trans-[3H]3f on hH3R-expressing cell homogenates; conditions: read-out: pKi in competition with trans-[3H]3f (converted)
Chain of hH3R (Q9Y5N1 whole entry): as above

mouse H3R = molecular target: T1, mouse H3R (Mus musculus, UniProt P58406); assay: [3H]NAMH competition radioligand binding on mH3R-expressing cell homogenates
T1 construct: expressed in transfected cells; host or cells: HEK293T, transient transfection (pcDEF3), cell homogenates
T1 sequence (P58406 whole entry): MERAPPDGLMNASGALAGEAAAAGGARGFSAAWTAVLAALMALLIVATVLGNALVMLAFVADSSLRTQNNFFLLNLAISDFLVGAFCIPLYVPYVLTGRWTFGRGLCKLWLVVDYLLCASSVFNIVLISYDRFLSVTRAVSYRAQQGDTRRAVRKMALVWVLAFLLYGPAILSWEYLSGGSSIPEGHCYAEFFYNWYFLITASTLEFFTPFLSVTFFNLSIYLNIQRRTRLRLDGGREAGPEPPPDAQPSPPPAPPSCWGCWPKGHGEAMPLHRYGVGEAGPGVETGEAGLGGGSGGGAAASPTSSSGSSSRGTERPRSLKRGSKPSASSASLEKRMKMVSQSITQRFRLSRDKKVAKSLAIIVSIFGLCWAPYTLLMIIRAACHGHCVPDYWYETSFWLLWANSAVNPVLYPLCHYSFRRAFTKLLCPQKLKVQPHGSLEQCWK
Protocol: Figure S15. Histamine receptor selectivity binding experiments. Concentration binding curves of trans-3f on cell homogenates expressing H1R (in competition with 4.0-4.8 nM [3H]mepyramine) or H4R (competition with 1.9-2.4 nM [3H]histamine. H2R binding was […]
KAT478). Pooled data of three independent experiments are shown as mean ± SEM.
Figure S16. Radioligand binding experiments with 3f on mH3R-expressing cell homogenates in competition with [3H]NAMH (1.4-1.7 nM). Pooled data of three independent experiments […]
Experimental procedures - Pharmacology […]
were purchased from Promega.
HEK293T cells stably expressing
48 hours post transfection,
[3H]3f binding experiments […]
by sonication (Sonifier Branson).
RT) containing 0.8% ethanol.
The incubation was terminated by
H2R selectivity was assessed
Cells were incubated with ligands

H1R = molecular target: T2, H1R (Homo sapiens, UniProt P35367); assay: Histamine receptor selectivity binding, [3H]mepyramine competition on cell homogenates expressing H1R; conditions: trans isomer; at concentrations lower than 1 μM; competition with [3H]mepyramine
T2 construct: HA; expressed in transfected cells; host or cells: HEK293T, transient transfection (pcDEF3), cell homogenates
T2 sequence (P35367 whole entry): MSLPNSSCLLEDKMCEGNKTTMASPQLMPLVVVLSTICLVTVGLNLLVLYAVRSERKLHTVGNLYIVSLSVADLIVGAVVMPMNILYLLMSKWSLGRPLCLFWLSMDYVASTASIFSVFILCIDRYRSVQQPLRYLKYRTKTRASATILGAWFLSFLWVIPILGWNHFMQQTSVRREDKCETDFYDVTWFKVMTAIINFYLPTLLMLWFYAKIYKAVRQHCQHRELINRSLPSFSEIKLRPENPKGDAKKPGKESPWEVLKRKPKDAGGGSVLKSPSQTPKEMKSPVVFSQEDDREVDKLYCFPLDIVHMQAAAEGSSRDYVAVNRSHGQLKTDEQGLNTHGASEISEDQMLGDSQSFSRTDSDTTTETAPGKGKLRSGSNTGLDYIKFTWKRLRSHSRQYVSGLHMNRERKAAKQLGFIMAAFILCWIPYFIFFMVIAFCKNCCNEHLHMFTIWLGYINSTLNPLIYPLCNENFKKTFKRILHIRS

H4R = molecular target: T3, H4R (Homo sapiens, UniProt Q9H3N8); assay: Histamine receptor selectivity binding, [3H]histamine competition on cell homogenates expressing H4R; conditions: trans isomer; at concentrations lower than 1 μM; competition with [3H]histamine
T3 construct: HA; expressed in transfected cells; host or cells: HEK293T, transient transfection (pcDEF3), cell homogenates

- PSScis (area %cis) ([1]; after illumination of trans isomer with 365 ± 10 nm at 1 mM in DMSO for 10 min): 98 area %
- PSStrans (area %trans) ([1]; illumination of PSS cis state with 506 ± 20 nm at 1 mM in DMSO for 10 min): 93 area %
- concentrations with tendency to aggregate/precipitate [2]: not observed
- Half-life (thermal relaxation of PSS cis state) [3]: 13 days
- λmax cis [4]: 439 nm
- λmax trans [4]: 348 nm
- binding to H2R (Nluc-H2R): does not bind
- Fold Ki shift (H3R; (high-affinity state)/(low-affinity state), ↓ lower affinity of PSS cis state than trans): 50 fold and 50.1 ↓ fold
- Ki (H3R; pKi PSScis ± SEM, PSS cis state): 25.1 nM
- Ki (H3R; pKi trans ± SEM, trans isomer): 0.501 nM
- Ki (hH3R; unlabeled PSS cis state): 20 nM
- Ki (hH3R; unlabeled trans isomer): 1 nM
- Ki (mouse H3R; trans isomer, [3H]NAMH (1.4-1.7 nM), read-out: pKi mouse H3R (converted)): 1.58 nM
- fold shift in affinity upon photoisomerization to PSS cis (mouse H3R) (mouse H3R; trans versus PSS cis): 42 fold
- binding to H1R (H1R): does not bind
- binding to H4R (H4R): does not bind
Structure (SMILES): Cc1nn(C2CCN(C)CC2)c(C)c1/N=N/c1ccc(O[C@H]2C[C@H](N3CCCCC3)C2)cc1 [Compound 3f]
